From paper PMC12753220, “A new amidohydrolase and β-oxidation–like pathway for piperine catabolism in soil actinomycetes” (The Journal of Biological Chemistry, 2025)

Target: T1, PipM (piperine hydrolase) (Rhodococcus erythropolis, UniProt Z9TMQ3P3F8)
T1 construct: full length, no signal peptide, untagged (pET24a(+)-pipM), E. coli Rosetta2 (DE3); ORF 1389 nt (462 residues deduced), ~50 kDa monomer, homotetramer ~220 kDa; N-terminus of native protein NSFALSNV
T1 sequence (Z9TMQ3P3F8 1-462): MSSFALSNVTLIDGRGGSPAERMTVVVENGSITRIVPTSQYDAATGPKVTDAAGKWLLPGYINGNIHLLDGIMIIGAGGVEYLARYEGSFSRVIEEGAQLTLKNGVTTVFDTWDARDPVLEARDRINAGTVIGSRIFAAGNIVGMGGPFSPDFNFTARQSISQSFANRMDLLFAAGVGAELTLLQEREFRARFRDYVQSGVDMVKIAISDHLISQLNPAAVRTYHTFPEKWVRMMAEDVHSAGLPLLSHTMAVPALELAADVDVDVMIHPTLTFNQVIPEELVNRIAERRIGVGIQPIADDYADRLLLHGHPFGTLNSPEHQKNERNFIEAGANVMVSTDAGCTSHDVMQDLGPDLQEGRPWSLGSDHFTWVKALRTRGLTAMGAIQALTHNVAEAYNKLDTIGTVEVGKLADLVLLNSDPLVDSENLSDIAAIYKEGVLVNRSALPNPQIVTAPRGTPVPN
Assay: HPLC at […] nm of piperic acid formation, Michaelis-Menten fit
Type: biochemical
Settings: 50 mM potassium phosphate pH 7.5, 28 °C, 1 min, 0.116 μM PipM, 0.001-0.5 mM piperine

Km: 2.11 ± 0.31 µM
SMILES: O=C(/C=C/C=C/c1ccc2c(c1)OCO2)N1CCCCC1 [piperine]
